Experimental data from patent publication US20030215462A1, “Use of UGT inhibitors to increase bioavailability” (priority 2001, published 2003).
Values joined by “and” are separate entries in the source; they are usually repeats but may differ in a detail not shown here. Equal values may be shown once. Read-outs that look alike come from different tables or passages of the source. One block for each compound: values may come before it.

Key:
Type in all cases: biochemical
[1] = test system: T1, UGT enzymes of human liver microsomes; experiment: Inhibition of 7-HFC glucuronidation in human liver microsomes; conditions: for % of control metabolism (SD, n = 3), 7-HFC glucuronidation: human liver microsomes 100 μg/ml
T1 construct: percentage of control metabolism, 7-HFC glucuronidation; percentage of control metabolism, 7-HFC glucuronidation

[2] = biological target: T2, UGT enzymes of human liver microsomes (Homo sapiens, UniProt P16662); experiment: Inhibition of zidovudine glucuronidation in human liver microsomes; conditions: liver lot 062101
T2 construct: residual metabolism (percentage of control), zidovudine glucuronidation; other: liver lot 062101; residual metabolism (percentage of control), zidovudine glucuronidation; residual metabolism (percentage of control)
T2 sequence (P16662 1-529): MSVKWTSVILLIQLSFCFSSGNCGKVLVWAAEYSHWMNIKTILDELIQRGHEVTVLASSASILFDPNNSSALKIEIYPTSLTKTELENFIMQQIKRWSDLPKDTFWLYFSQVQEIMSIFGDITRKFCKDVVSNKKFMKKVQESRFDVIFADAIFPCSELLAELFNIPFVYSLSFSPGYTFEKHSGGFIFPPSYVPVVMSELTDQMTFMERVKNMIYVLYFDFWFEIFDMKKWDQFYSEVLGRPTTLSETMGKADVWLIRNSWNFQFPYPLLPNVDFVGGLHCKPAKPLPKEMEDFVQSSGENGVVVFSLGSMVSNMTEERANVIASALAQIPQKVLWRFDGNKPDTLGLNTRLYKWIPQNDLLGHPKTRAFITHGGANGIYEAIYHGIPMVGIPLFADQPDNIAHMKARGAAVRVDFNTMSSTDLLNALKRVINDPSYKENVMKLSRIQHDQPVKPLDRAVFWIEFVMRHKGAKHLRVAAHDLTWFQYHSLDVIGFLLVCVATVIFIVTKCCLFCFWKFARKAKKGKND
Method: Compounds were eluted using a binary solvent gradient system where solvent A was dilute phosphoric acid (pH 3) and solvent B was acetonitrile.
Standardized incubations utilized 500 μM zidovudine substrate, 1 mg/ml microsomal protein, 5 mM UDPGA and a 30 min incubation time. […] Int.

[3] = test system: UGT enzymes of human liver microsomes; experiment: Inhibition of raloxifene glucuronidation (G1, G2) in human liver microsomes
Description: Compounds were eluted using a binary solvent gradient system. […] Solvent B was methanol. […] Detection was at 280 nm.

[4] = inhibitor 500 μM, 7-HFC 50 μM, 15 min
[5] = G1, inhibitor 500 μM, raloxifene 50 μM, human liver microsomes 250 μg/ml, 15 min
[6] = G2, inhibitor 500 μM, raloxifene 50 μM, human liver microsomes 250 μg/ml, 15 min
[7] = inhibitor 100 μM, 7-HFC 50 μM, 15 min
[8] = inhibitor 200 μM, 7-HFC 50 μM, 15 min

- % of control metabolism (SD, n = 3), 7-HFC glucuronidation [1, 4]: 92 (1) %
SMILES: CCCC(=O)OCC(O)C1OC(=O)C(OC(=O)CCC)=C1O (stereo not shown) [Ascorbyl-2,6-dibutyrate]

SMILES: COc1ccc2cc([C@H](C)C(=O)[O-])ccc2c1.[Na+] [Naproxen Na salt]
- % of control metabolism (SD, n = 3), 7-HFC glucuronidation [1, 4]: 82 (1) %

- % of control metabolism (SD, n = 3), 7-HFC glucuronidation [1, 4]: 103 (1) %
SMILES: Cc1cn([C@H]2C[C@H](N=[N+]=[N-])[C@@H](CO[C@@H]3O[C@H](C(=O)O)[C@@H](O)[C@H](O)[C@H]3O)O2)c(=O)[nH]c1=O [AZT glucuronide]

- % of control metabolism (SD, n = 3), 7-HFC glucuronidation [1, 4]: 94 (2) %
- residual metabolism (percentage of control), zidovudine glucuronidation ([2]; inhibitor 500 μM): 97 (3) %
SMILES: O=C(O)C=Cc1ccccc1 [Cinnamic acid]

- % of control metabolism (SD, n = 3), 7-HFC glucuronidation [1, 4]: 104 (2) %
SMILES: CCCCCCCCCCCCCCCC(=O)O [Palmitic acid]

SMILES: CC(C)[C@@H]1CC[C@@H](C)C[C@H]1O[C@@H]1O[C@H](C(=O)O)[C@@H](O)[C@H](O)[C@H]1O [Menthol glucuronide]
- % of control metabolism (SD, n = 3), raloxifene glucuronide G1 [3]: 91 (2) %
- % of control metabolism (SD, n = 3), raloxifene glucuronide G2 [3]: 84 (1) %
- % of control metabolism (SD, n = 3), 7-HFC glucuronidation [1, 4]: 94 (4) %

- % of control metabolism (SD, n = 3), 7-HFC glucuronidation [1, 4]: 71 (2) %
SMILES: CC(C)=CCC/C(C)=C\CO [Nerol]

- % of control metabolism (SD, n = 3), 7-HFC glucuronidation [1, 4]: 78 (2) %
SMILES: CC1=CC(=O)c2ccccc2C1=O [Vitamin K3]

SMILES: COc1ccc2cc([C@H](C)C(=O)O)ccc2c1 [Naproxen Free Acid]
- % of control metabolism (SD, n = 3), raloxifene glucuronide G1 [3]: 81 (3) %
- % of control metabolism (SD, n = 3), raloxifene glucuronide G2 [3]: 78 (2) %
- % of control metabolism (SD, n = 3), 7-HFC glucuronidation [1, 4]: 83 (1) %

- % of control metabolism (SD, n = 3), raloxifene glucuronide G1 ([3]; G1, inhibitor 100 μM, raloxifene 50 μM, human liver microsomes 250 μg/ml, 15 min): 57 (2) %
- % of control metabolism (SD, n = 3), raloxifene glucuronide G1 [3, 5]: 26 (1) %
- % of control metabolism (SD, n = 3), raloxifene glucuronide G2 ([3]; G2, inhibitor 100 μM, raloxifene 50 μM, human liver microsomes 250 μg/ml, 15 min): 71 (4) %
- % of control metabolism (SD, n = 3), raloxifene glucuronide G2 [3, 6]: 36 (5) %
- IC50 ([1]; 7-HFC 50 μM, 1 mM UDPGA, 15 min): 200 µM
- percentage of control metabolism, 7-HFC glucuronidation ([1]; inhibitor 100 μM): 64 (1) %
- % of control metabolism (SD, n = 3), 7-HFC glucuronidation [1, 7]: 64 (1) %
- percentage of control metabolism, 7-HFC glucuronidation ([1]; inhibitor 200 μM): 51 (1) %
- % of control metabolism (SD, n = 3), 7-HFC glucuronidation [1, 8]: 51 (1) %
- percentage of control metabolism, 7-HFC glucuronidation ([1]; inhibitor 500 μM): 11 (3) % and 17 (0) %
- % of control metabolism (SD, n = 3), 7-HFC glucuronidation [1, 4]: 11 (3), % and 17 (0) %
SMILES: CCCCCCCCCCCCCCCC(=O)OC[C@H](O)[C@H]1OC(=O)C(O)=C1O [Ascorbyl palmitate]

- % of control metabolism (SD, n = 3), 7-HFC glucuronidation [1, 4]: 87 (0) %
SMILES: COc1cc(/C=C/CO)ccc1O [Coniferol]

- residual metabolism (percentage of control), zidovudine glucuronidation ([2]; inhibitor 200 μM): 64 (2) %
- residual metabolism (percentage of control), zidovudine glucuronidation ([2]; inhibitor 500 μM): 35 (1) %
- residual metabolism (percentage of control), zidovudine glucuronidation ([2]; inhibitor 1000 μM): 20 (1) %
SMILES: CC(=O)OC1CC(C)CCC1C(C)C (stereo not shown) [Menthyl acetate]

- % of control metabolism (SD, n = 3), 7-HFC glucuronidation [1, 4]: 70 (3) %
SMILES: CCCCCCCCCCCCCCCC(=O)Oc1cccc2ccccc12 [α-Naphthyl palmitate]

- % of control metabolism (SD, n = 3), 7-HFC glucuronidation [1, 4]: 86 (2) %
- residual metabolism (percentage of control), zidovudine glucuronidation ([2]; inhibitor 500 μM): 73 (5) %
SMILES: C=CC(C)(O)CCC=C(C)C (stereo not shown) [Linalool]

- % of control metabolism (SD, n = 3), 7-HFC glucuronidation [1, 7]: 82 (0) %
- % of control metabolism (SD, n = 3), 7-HFC glucuronidation [1, 8]: 73 (1) %
- % of control metabolism (SD, n = 3), 7-HFC glucuronidation [1, 4]: 49 (2), % and 48 (1) %
- residual metabolism (percentage of control), zidovudine glucuronidation ([2]; inhibitor 500 μM): 68 (7) %
SMILES: COc1ccc2c(c1)c(CC(=O)O)c(C)n2C(=O)c1ccc(Cl)cc1 [Indomethacin, reference compound]

- % of control metabolism (SD, n = 3), raloxifene glucuronide G1 [3, 5]: 138 (6) %
- % of control metabolism (SD, n = 3), raloxifene glucuronide G2 [3, 6]: 132 (5) %
- % of control metabolism (SD, n = 3), 7-HFC glucuronidation [1, 4]: 94 (1) %
SMILES: CN(C)CCC=C1c2ccccc2CCc2ccccc21 [Amitriptyline, reference compound]

- % of control metabolism (SD, n = 3), 7-HFC glucuronidation [1, 4]: 73 (2) %
SMILES: CCCCCCCCCCCCCCCCCC(=O)OC[C@H](O)[C@H]1OC(=O)C(O)=C1O [Ascorbyl stearate]
